Measurements as given in PubChem BioAssay (NCI).
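How tested: cells in 96-well plates exposed to compound for 48 hours at five concentrations. GI50 = concentration required for 50% inhibition of growth. TGI is the concentration that stops growth completely.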

Experiments:
Experiment in all cases: NCI-60 cell line screen, 48 h
ACHN renal = test system: ACHN renal
RPMI-8226 leukemia = test system: RPMI-8226 leukemia
NCI/ADR-RES ovarian = test system: NCI/ADR-RES ovarian
TK-10 renal = test system: TK-10 renal
UO-31 renal = test system: UO-31 renal
CAKI-1 renal = test system: CAKI-1 renal
SK-MEL-2 melanoma = test system: SK-MEL-2 melanoma
OVCAR-3 ovarian = test system: OVCAR-3 ovarian
SK-OV-3 ovarian = test system: SK-OV-3 ovarian
SF-539 CNS = test system: SF-539 CNS
HCT-15 colon = test system: HCT-15 colon
MDA-MB-231 breast = test system: MDA-MB-231 breast
OVCAR-4 ovarian = test system: OVCAR-4 ovarian
U251 CNS = test system: U251 CNS
K-562 leukemia = test system: K-562 leukemia
NCI-H460 lung = test system: NCI-H460 lung
OVCAR-8 ovarian = test system: OVCAR-8 ovarian
SK-MEL-28 melanoma = test system: SK-MEL-28 melanoma
M14 melanoma = test system: M14 melanoma
NCI-H226 lung = test system: NCI-H226 lung
HT29 colon = test system: HT29 colon
HS 578T breast = test system: HS 578T breast
DU-145 prostate = test system: DU-145 prostate
MDA-MB-435 = test system: MDA-MB-435
A549 NSCLC = test system: A549 NSCLC
BT-549 breast = test system: BT-549 breast
RXF 393 renal = test system: RXF 393 renal
MCF7 breast = test system: MCF7 breast
MALME-3M melanoma = test system: MALME-3M melanoma
SNB-19 CNS = test system: SNB-19 CNS
A498 renal = test system: A498 renal
MOLT-4 leukemia = test system: MOLT-4 leukemia
HCT-116 colon = test system: HCT-116 colon
SNB-75 CNS = test system: SNB-75 CNS
SK-MEL-5 melanoma = test system: SK-MEL-5 melanoma
OVCAR-5 ovarian = test system: OVCAR-5 ovarian
SW-620 colon = test system: SW-620 colon
KM12 colon = test system: KM12 colon
HL-60(TB) leukemia = test system: HL-60(TB) leukemia
CCRF-CEM leukemia = test system: CCRF-CEM leukemia
COLO 205 colon = test system: COLO 205 colon
LOX IMVI melanoma = test system: LOX IMVI melanoma
SF-268 CNS = test system: SF-268 CNS
EKVX NSCLC = test system: EKVX NSCLC
UACC-62 melanoma = test system: UACC-62 melanoma
IGROV1 ovarian = test system: IGROV1 ovarian
HOP-62 NSCLC = test system: HOP-62 NSCLC
HCC-2998 colon = test system: HCC-2998 colon
PC-3 prostate = test system: PC-3 prostate
SN12C renal = test system: SN12C renal
NCI-H522 lung = test system: NCI-H522 lung
NCI-H23 lung = test system: NCI-H23 lung
HOP-92 NSCLC = test system: HOP-92 NSCLC
T-47D breast = test system: T-47D breast
SF-295 CNS = test system: SF-295 CNS
786-0 renal = test system: 786-0 renal

CC(N)C(Cc1ccc(Cl)cc1)c1ccc(Cl)cc1 (configuration not stated)
GI50 (ACHN renal): 4.85 µM
TGI (ACHN renal): 18.5 µM
GI50 (RPMI-8226 leukemia): 6.48 µM
TGI (RPMI-8226 leukemia): 22.2 µM
GI50 (NCI/ADR-RES ovarian): 13.4 µM
TGI (NCI/ADR-RES ovarian): 36.9 µM
GI50 (TK-10 renal): 12.6 µM
TGI (TK-10 renal): 26.2 µM
GI50 (UO-31 renal): 7.12 µM
TGI (UO-31 renal): 20.9 µM
GI50 (CAKI-1 renal): 11.8 µM
TGI (CAKI-1 renal): 24.1 µM
GI50 (SK-MEL-2 melanoma): 13 µM
TGI (SK-MEL-2 melanoma): 27 µM
GI50 (OVCAR-3 ovarian): 13.8 µM
TGI (OVCAR-3 ovarian): 27.5 µM
GI50 (SK-OV-3 ovarian): 16.8 µM
TGI (SK-OV-3 ovarian): 30.8 µM
GI50 (SF-539 CNS): 13.3 µM
TGI (SF-539 CNS): 26.8 µM
GI50 (HCT-15 colon): 4.15 µM
TGI (HCT-15 colon): 17.5 µM
GI50 (MDA-MB-231 breast): 4.26 µM
TGI (MDA-MB-231 breast): 16.8 µM
GI50 (OVCAR-4 ovarian): 11.4 µM
TGI (OVCAR-4 ovarian): 25.7 µM
GI50 (U251 CNS): 12.3 µM
TGI (U251 CNS): 25.9 µM
GI50 (K-562 leukemia): 3.05 µM
TGI (K-562 leukemia): 10.8 µM
GI50 (NCI-H460 lung): 5.55 µM
TGI (NCI-H460 lung): 18.5 µM
GI50 (OVCAR-8 ovarian): 20.4 µM
TGI (OVCAR-8 ovarian): 52.8 µM
GI50 (SK-MEL-28 melanoma): 3.86 µM
TGI (SK-MEL-28 melanoma): 15.9 µM
GI50 (M14 melanoma): 5.53 µM
TGI (M14 melanoma): 18.9 µM
GI50 (NCI-H226 lung): 17.5 µM
TGI (NCI-H226 lung): 39.3 µM
GI50 (HT29 colon): 3.29 µM
TGI (HT29 colon): 13.6 µM
GI50 (HS 578T breast): 13.8 µM
TGI (HS 578T breast): 39.7 µM
GI50 (DU-145 prostate): 12.5 µM
TGI (DU-145 prostate): 25.7 µM
GI50 (MDA-MB-435): 8.2 µM
TGI (MDA-MB-435): 20.7 µM
GI50 (A549 NSCLC): 14 µM
TGI (A549 NSCLC): 29.4 µM
GI50 (BT-549 breast): 13.7 µM
TGI (BT-549 breast): 28.1 µM
GI50 (RXF 393 renal): 11.7 µM
TGI (RXF 393 renal): 25.5 µM
GI50 (MCF7 breast): 2.99 µM
TGI (MCF7 breast): 12.5 µM
GI50 (MALME-3M melanoma): 8.17 µM
TGI (MALME-3M melanoma): 22.1 µM
GI50 (SNB-19 CNS): 14.1 µM
TGI (SNB-19 CNS): 29.5 µM
GI50 (A498 renal): 15.1 µM
TGI (A498 renal): 30.7 µM
GI50 (MOLT-4 leukemia): 13.6 µM
TGI (MOLT-4 leukemia): 31.4 µM
GI50 (HCT-116 colon): 4.05 µM
TGI (HCT-116 colon): 16.4 µM
GI50 (SNB-75 CNS): 3.76 µM
TGI (SNB-75 CNS): 18.3 µM
GI50 (SK-MEL-5 melanoma): 12.4 µM
TGI (SK-MEL-5 melanoma): 25.1 µM
GI50 (OVCAR-5 ovarian): 12.4 µM
TGI (OVCAR-5 ovarian): 27.3 µM
GI50 (SW-620 colon): 4.46 µM
TGI (SW-620 colon): 16.9 µM
GI50 (KM12 colon): 8.48 µM
TGI (KM12 colon): 22.6 µM
GI50 (HL-60(TB) leukemia): 10.6 µM
TGI (HL-60(TB) leukemia): 26.1 µM
GI50 (CCRF-CEM leukemia): 20.3 µM
TGI (CCRF-CEM leukemia): 39 µM
GI50 (COLO 205 colon): 1.89 µM
TGI (COLO 205 colon): 3.97 µM
GI50 (LOX IMVI melanoma): 5.56 µM
TGI (LOX IMVI melanoma): 18.9 µM
GI50 (SF-268 CNS): 11.4 µM
TGI (SF-268 CNS): 26.5 µM
GI50 (EKVX NSCLC): 9.22 µM
TGI (EKVX NSCLC): 22.4 µM
GI50 (UACC-62 melanoma): 6.01 µM
TGI (UACC-62 melanoma): 19.6 µM
GI50 (IGROV1 ovarian): 4.89 µM
TGI (IGROV1 ovarian): 18.7 µM
GI50 (HOP-62 NSCLC): 13.1 µM
TGI (HOP-62 NSCLC): 28.4 µM
GI50 (HCC-2998 colon): 1.96 µM
TGI (HCC-2998 colon): 4.11 µM
GI50 (PC-3 prostate): 12.8 µM
TGI (PC-3 prostate): 26.3 µM
GI50 (SN12C renal): 11.4 µM
TGI (SN12C renal): 26.7 µM
GI50 (NCI-H522 lung): 11.4 µM
TGI (NCI-H522 lung): 26.1 µM
GI50 (NCI-H23 lung): 13.4 µM
TGI (NCI-H23 lung): 27.8 µM
GI50 (HOP-92 NSCLC): 5.59 µM
TGI (HOP-92 NSCLC): 19.9 µM
GI50 (T-47D breast): 10.7 µM
TGI (T-47D breast): 26 µM
GI50 (SF-295 CNS): 10.4 µM
TGI (SF-295 CNS): 23.6 µM
GI50 (786-0 renal): 10.2 µM
TGI (786-0 renal): 24.3 µM
